Test results published in patent US7795261B2, “Substituted 1-piperidin-4-yl-4-pyrrolidin-3-yl-piperazine derivatives and their use as neurokinin antagonists” (Janssen Pharmaceutica NV, priority 2002, dated 2010).

What was measured:
Assay type in all cases: cell-based
NK2 = target: T1, NK2 (Homo sapiens, UniProt P21452); assay: Signal transduction (ST), intracellular Ca++ (FLIPR), NK2; details: read-out: pIC50 NK2 (converted)
T1 sequence (P21452 1-398): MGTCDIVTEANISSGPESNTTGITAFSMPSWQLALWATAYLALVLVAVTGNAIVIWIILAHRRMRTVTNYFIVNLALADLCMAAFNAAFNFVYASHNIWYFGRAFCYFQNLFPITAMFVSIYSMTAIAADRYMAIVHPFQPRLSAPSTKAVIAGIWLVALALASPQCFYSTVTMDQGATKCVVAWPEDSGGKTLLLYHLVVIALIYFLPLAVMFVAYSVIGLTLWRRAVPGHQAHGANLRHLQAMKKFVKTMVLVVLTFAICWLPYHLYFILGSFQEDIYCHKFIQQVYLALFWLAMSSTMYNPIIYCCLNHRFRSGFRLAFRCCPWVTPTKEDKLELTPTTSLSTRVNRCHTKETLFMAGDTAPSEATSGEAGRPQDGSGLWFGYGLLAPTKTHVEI
Experimental: [The procedure below names another target; the source lists this target under the same test.] This test evaluates in vitro functional NK1 antagonistic activity. For the measurements of intracellular Ca^++ concentrations the cells were grown on 96-well (black wall/transparent bottom) plates from Costar for 2 days until they reached confluence. The cells were loaded with 2 μM Fluo3 in DMEM containing 0.1% BSA and 2.5 mM probenecid for 1 h at 37° C. They were washed 3× with a Krebs buffer (140 mM NaCl, 1 mM MgCl2×6H2O, 5 mM KCl, 10 mM glucose, 5 mM HEPES; 1.25 mM CaCl2; pH 7.4) containing 2.5 mM probenecid and 0.1% BSA (Ca^++-buffer). The cells were preincubated with a concentration range of antagonists for 20 min at RT and Ca^++-signals after addition of the agonists were measured in a Fluorescence Image Plate Reader (FLIPR from Molecular Devices, Crawley, England). The peak of the Ca^++-transient was considered as the relevant signal and the mean values of corresponding wells were analysed as described below.
The sigmoidal dose response curves were analysed by computerised curve-fitting, using the GraphPad Program. […] For antagonist responses the IC50-value was calculated using non-linear regression.
The last columns indicates—without being limited therefore—for which the compounds might be most suitable. Of course, since for some neurokinin receptors no data was determined, it is obvious that these compounds might be attributed to another suitable use.

NK3 = target: T2, NK3 (Homo sapiens, UniProt P29371); assay: Signal transduction (ST), intracellular Ca++ (FLIPR), NK3; details: read-out: pIC50 NK3 (converted)
T2 sequence (P29371 1-465): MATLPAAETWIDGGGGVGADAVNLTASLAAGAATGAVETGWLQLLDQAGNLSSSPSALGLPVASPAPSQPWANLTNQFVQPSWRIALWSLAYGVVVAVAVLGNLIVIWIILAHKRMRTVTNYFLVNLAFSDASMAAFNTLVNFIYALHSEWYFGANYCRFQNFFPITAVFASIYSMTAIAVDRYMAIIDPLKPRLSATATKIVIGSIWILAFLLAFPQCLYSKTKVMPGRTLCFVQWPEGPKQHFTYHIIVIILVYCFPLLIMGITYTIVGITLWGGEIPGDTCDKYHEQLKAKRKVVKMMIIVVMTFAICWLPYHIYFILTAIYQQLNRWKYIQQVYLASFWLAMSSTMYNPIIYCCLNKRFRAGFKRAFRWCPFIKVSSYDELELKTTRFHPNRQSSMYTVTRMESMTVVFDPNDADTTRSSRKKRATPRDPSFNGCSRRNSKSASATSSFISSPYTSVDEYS

NK1 = NK1 (Homo sapiens, UniProt P25103); assay: Signal transduction (ST), intracellular Ca++ (FLIPR), NK1 antagonistic activity; details: read-out: pIC50 NK1 (converted)
Chain of NK1 (P25103 whole entry): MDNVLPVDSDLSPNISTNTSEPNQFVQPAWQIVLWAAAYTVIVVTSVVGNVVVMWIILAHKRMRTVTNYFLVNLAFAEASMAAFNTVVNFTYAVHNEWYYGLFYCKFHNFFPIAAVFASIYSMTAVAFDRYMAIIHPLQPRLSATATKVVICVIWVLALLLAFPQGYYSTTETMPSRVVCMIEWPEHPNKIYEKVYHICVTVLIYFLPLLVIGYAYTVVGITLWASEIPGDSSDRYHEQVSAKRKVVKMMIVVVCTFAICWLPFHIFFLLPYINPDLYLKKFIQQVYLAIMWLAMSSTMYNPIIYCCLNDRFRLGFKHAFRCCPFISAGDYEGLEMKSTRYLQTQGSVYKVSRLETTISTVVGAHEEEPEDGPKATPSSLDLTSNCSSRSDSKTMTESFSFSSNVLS
How it was run: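 Confluent cells loaded with 2 μM Fluo3 (1 h, 37 °C, probenecid), preincubated 20 min at RT with antagonist concentration range, then agonist added. Peak Ca++ transient read by FLIPR in Krebs buffer pH 7.4; IC50 by non-linear regression.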

Row | IC50 (NK2) | IC50 (NK3) | IC50 (NK1) | Compound
1 | 5010 nM | 5010 nM | 20 nM | O=C(c1cn[nH]c1)N1CCC(N2CCN([C@H]3CCN(C(=O)c4cc(C(F)(F)F)cc(C(F)(F)F)c4)[C@H](Cc4ccccc4)C3)CC2)C1 (stereo partly drawn) [Compound 25]
2 | 2510 nM | 2510 nM | 7.94 nM | O=C(C1CCCCC1)N1CCC(N2CCN(C3CCN(C(=O)c4cc(C(F)(F)F)cc(C(F)(F)F)c4)C(Cc4ccccc4)C3)CC2)C1 (single isomer, unassigned) [Compound 403]
3 | 3160 nM | 398 nM | 15.8 nM | O=C(c1ccsc1)N1CCC(N2CCN(C3CCN(C(=O)c4cc(C(F)(F)F)cc(C(F)(F)F)c4)C(Cc4ccccc4)C3)CC2)C1 (single isomer, unassigned) [Compound 39]
4 | 5010 nM | 398 nM | 15.8 nM | Cn1cccc1C(=O)CN1CCC(N2CCN([C@H]3CCN(C(=O)c4cc(C(F)(F)F)cc(C(F)(F)F)c4)[C@H](Cc4ccccc4)C3)CC2)C1 (stereo partly drawn) [Compound 103]
5 | 1260 nM | 1260 nM | 15.8 nM | O=C(c1cc(C(F)(F)F)cc(C(F)(F)F)c1)N1CC[C@H](N2CCN(C3CCN(S(=O)(=O)c4ccccc4O)C3)CC2)C[C@H]1Cc1ccccc1 (stereo partly drawn) [Compound 307]
6 | 1580 nM | 501 nM | 7.94 nM | O=C(C1CC1)N1CC[C@H](N2CCN([C@H]3CCN(C(=O)c4cc(C(F)(F)F)cc(C(F)(F)F)c4)[C@H](Cc4ccc(Cl)c(Cl)c4)C3)CC2)C1 [Compound 312]
7 | 6310 nM | 158 nM | 25.1 nM | O=C(c1cc(C(F)(F)F)cc(C(F)(F)F)c1)N1CC[C@H](N2CCN(C3CCN(c4cnccn4)C3)CC2)C[C@H]1Cc1ccccc1 (stereo partly drawn) [Compound 4]
8 | 3980 nM | 1580 nM | 12.6 nM | O=C(c1cc(CCO)cs1)N1CCC(N2CCN([C@H]3CCN(C(=O)c4cc(C(F)(F)F)cc(C(F)(F)F)c4)[C@H](Cc4ccccc4)C3)CC2)C1 (stereo partly drawn) [Compound 363]
9 | 1260 nM | 316 nM | 10 nM | O=C(c1cnccn1)N1CC[C@H](N2CCN([C@H]3CCN(C(=O)c4cc(C(F)(F)F)cc(C(F)(F)F)c4)[C@H](Cc4ccc(Cl)c(Cl)c4)C3)CC2)C1 [Compound 323]
10 | 398 nM | 251 nM | 31.6 nM | Cc1nc(S(=O)(=O)N2CCC(N3CCN([C@H]4CCN(C(=O)c5cc(C(F)(F)F)cc(C(F)(F)F)c5)[C@H](Cc5ccccc5)C4)CC3)C2)cn1C (stereo partly drawn) [Compound 78]
11 | 1000 nM | 501 nM | 15.8 nM | Cc1noc(C)c1S(=O)(=O)N1CCC(N2CCN(C3CCN(C(=O)c4cc(C(F)(F)F)cc(C(F)(F)F)c4)C(Cc4ccccc4)C3)CC2)C1 (stereo not drawn) [Compound 79]
12 | 3160 nM | 631 nM | 6.31 nM | O=C(C1CCOC1)N1CCC(N2CCN(C3CCN(C(=O)c4cc(C(F)(F)F)cc(C(F)(F)F)c4)C(Cc4ccc(F)c(F)c4)C3)CC2)C1 (single isomer, unassigned) [Compound 285]
13 | 5010 nM | 7940 nM | 31.6 nM | O=C(C(O)c1ccccc1Cl)N1CCC(N2CCN([C@H]3CCN(C(=O)c4cc(C(F)(F)F)cc(C(F)(F)F)c4)[C@H](Cc4ccccc4)C3)CC2)C1 (stereo partly drawn) [Compound 334]

The next lines start with the molecule.

Row | Compound | IC50 (NK2) | IC50 (NK3) | IC50 (NK1)
14 | Cc1cc(C(=O)N2CCC(N3CCN([C@H]4CCN(C(=O)c5cc(C(F)(F)F)cc(C(F)(F)F)c5)[C@H](Cc5ccccc5)C4)CC3)C2)n(C)n1 (stereo partly drawn) [Compound 26] | 1580 nM | 158 nM | 10 nM
15 | O=C(c1ccccc1O)N1CCC(N2CCN([C@H]3CCN(C(=O)c4cc(C(F)(F)F)cc(C(F)(F)F)c4)[C@H](Cc4ccccc4)C3)CC2)C1 (stereo partly drawn) [Compound 327] | 3980 nM | 2000 nM | 6.31 nM
16 | O=C(c1ccsc1)N1CCC(N2CCN([C@H]3CCN(C(=O)c4cc(C(F)(F)F)cc(C(F)(F)F)c4)[C@H](Cc4ccccc4)C3)CC2)C1 (stereo partly drawn) [Compound 41] | 1580 nM | 200 nM | 15.8 nM
17 | Cn1cccc(C(=O)N2CCC(N3CCN(C4CCN(C(=O)c5cc(C(F)(F)F)cc(C(F)(F)F)c5)C(Cc5ccc(F)c(F)c5)C4)CC3)C2)c1=O (single isomer, unassigned) [Compound 260] | 398 nM | 3980 nM | 15.8 nM
18 | CC(C)(C)C(=O)N1CC[C@H](N2CCN([C@H]3CCN(C(=O)c4cc(C(F)(F)F)cc(C(F)(F)F)c4)[C@H](Cc4ccc(Cl)c(Cl)c4)C3)CC2)C1 [Compound 313] | 631 nM | 251 nM | 3.98 nM
19 | CC(C)(C)C(=O)N1CCC(N2CCN(C3CCN(C(=O)c4cc(C(F)(F)F)cc(C(F)(F)F)c4)C(Cc4ccc(F)c(F)c4)C3)CC2)C1 (single isomer, unassigned) [Compound 364] | 2000 nM | 631 nM | 7.94 nM
20 | O=C(c1ccccc1Cl)N1CCC(N2CCN([C@H]3CCN(C(=O)c4cc(C(F)(F)F)cc(C(F)(F)F)c4)[C@H](Cc4ccc(Cl)c(Cl)c4)C3)CC2)C1 (relative stereo) [Compound 164] | 79.4 nM | 398 nM | 15.8 nM
21 | O=C(c1cc(F)ccc1F)N1CCC(N2CCN([C@H]3CCN(C(=O)c4cc(C(F)(F)F)cc(C(F)(F)F)c4)[C@H](Cc4ccccc4)C3)CC2)C1 (stereo partly drawn) [Compound 21] | 5010 nM | 398 nM | 12.6 nM
22 | O=C(c1cccs1)N1CC[C@H](N2CCN([C@H]3CCN(C(=O)c4cc(C(F)(F)F)cc(C(F)(F)F)c4)[C@H](Cc4ccc(Cl)c(Cl)c4)C3)CC2)C1 [Compound 318] | 316 nM | 398 nM | 15.8 nM
23 | O=C(C1CCOC1)N1CCC(N2CCN(C3CCN(C(=O)c4cc(C(F)(F)F)cc(C(F)(F)F)c4)C(Cc4ccccc4)C3)CC2)C1 (single isomer, unassigned) [Compound 216] | 5010 nM | 1580 nM | 10 nM
24 | O=C(C1CC1)N1CC[C@@H](N2CCN([C@H]3CCN(C(=O)c4cc(C(F)(F)F)cc(C(F)(F)F)c4)[C@H](Cc4ccc(Cl)c(Cl)c4)C3)CC2)C1 [Compound 263] | 794 nM | 316 nM | 6.31 nM
25 | Cc1cc(C(=O)N2CCC(N3CCN([C@H]4CCN(C(=O)c5cc(C(F)(F)F)cc(C(F)(F)F)c5)[C@H](Cc5ccccc5)C4)CC3)C2)no1 (stereo partly drawn) [Compound 46] | 3980 nM | 1260 nM | 31.6 nM
26 | COc1ccccc1S(=O)(=O)N1CCC(N2CCN([C@H]3CCN(C(=O)c4cc(C(F)(F)F)cc(C(F)(F)F)c4)[C@H](Cc4ccccc4)C3)CC2)C1 (stereo partly drawn) [Compound 300] | 794 nM | 2000 nM | 10 nM
27 | O=C(c1cnccn1)N1CCC(N2CCN(C3CCN(C(=O)c4cc(C(F)(F)F)cc(C(F)(F)F)c4)C(Cc4ccc(Cl)c(Cl)c4)C3)CC2)C1 (stereo not drawn) [Compound 171] | 794 nM | 251 nM | 6.31 nM
28 | COc1ccc(S(=O)(=O)N2CCC(N3CCN([C@H]4CCN(C(=O)c5cc(C(F)(F)F)cc(C(F)(F)F)c5)[C@H](Cc5ccccc5)C4)CC3)C2)cc1 (stereo partly drawn) [Compound 280] | 1260 nM | 3980 nM | 15.8 nM
29 | O=C(C1CCCCC1)N1CC[C@H](N2CCN([C@H]3CCN(C(=O)c4cc(C(F)(F)F)cc(C(F)(F)F)c4)[C@H](Cc4ccc(Cl)c(Cl)c4)C3)CC2)C1 [Compound 314] | 1260 nM | 501 nM | 15.8 nM
30 | O=C(c1sccc1CCO)N1CCC(N2CCN([C@H]3CCN(C(=O)c4cc(C(F)(F)F)cc(C(F)(F)F)c4)[C@H](Cc4ccccc4)C3)CC2)C1 (stereo partly drawn) [Compound 369] | 3980 nM | 631 nM | 12.6 nM
